Measurements reported in patent US20070004689A1, “Antiangiogenic agents” (priority 2004, published 2007).
Like-named read-outs stand apart in the source and are kept apart here.

What was measured:
[1] = tested on: human hepatocyte suspensions; assay: Hepatocyte incubations, human; format: in vitro ADME; details: human hepatocytes, NR = no reaction
Experimental: (§1) Hepatocyte Incubations: An in vitro measure of metabolism using cells from rat and human liver. Rat and human hepatocyte suspensions (10^6 cells per mL of serum-free (H)CL15 culture medium) were incubated with 2 concentrations (1 and 5 μM) of each of the compounds. Stock solutions were prepared in DMSO, and were further diluted in culture medium to the final test concentrations. 7-Ethoxycoumarin (7-EC) were included as a positive control substrate for P450. A 0.1 M 7-EC stock solution was prepared in DMSO, and the final assay concentration was 100 μM. The reactions were initiated by the addition of the substrates, incubated at 37° C., and terminated after 0, 60 and 120 minutes by addition of acetonitrile. The positive 7-EC control reactions were stopped with perchloric acid or ZnSO4 and BaOH after 60-minutes of incubation. The reaction mixture was centrifuged to remove the cell debris, and the supernatant was used for subsequent analysis by HPLC/LC-MS. If necessary, the supernatants were flash frozen in liquid N2 and stored at −70° C. until further analysis. HPLC was used to analyze product formation from 7-EC. Analyses to determine the concentration of the test compounds were carried out using reverse phase HPLC with tandem mass spectrometric detection (LC-MS/MS). Samples were analyzed to measure the disappearance of parent compound over time. The rate of metabolism was estimated by fitting a curve to the data for each concentration against time using GraphPad Prism Version 3.02 software.

U87-MG a human glioma = assay: Proliferation assay, U87-MG; format: cell-based
From the text: (§2) Cell Culture: Human umbilical vein endothelial cells (HUVEC) were obtained from Clonetics (San Diego, Calif.), MCF7 cells were the kind gift of Dr. Dorraya El Ashry (University of Michigan), MDA-MB-231 a human breast carcinoma, PC3 a human prostate carcinoma, and U87-MG a human glioma, cell lines were obtained from ATCC. HUVEC cultures were maintained for up to 5 passages in EGM containing bovine brain extract (Clonetics) and 1× antibiotic-antimycotic (BioWhittaker, Walkersville, Md.). MDA-MB-231, PC3, U87-MG and MCF-7 cells were maintained in DMEM/F12 (1:1) containing 10% (v/v) fetal bovine serum (Hyclone Laboratories, Logan, Utah) and 1× antibiotic-antimycotic. MCF7 cells were used between passage 60 and passage 100.
(§3) Proliferation Assays: Proliferation was measured by cell counting using a Coulter Zl cell counter (Coulter Corporation, Hialeah, Fla.) or by evaluation of DNA synthesis. Each condition was done in triplicate and experiments were repeated at least twice. To determine estrogenicity of the analogs, MCF7 estrogen-dependent proliferation assays were performed. The cells were seeded in complete media at 10,000 cells/well in a 24 well plate after allowing the cells to adhere overnight and the seeding density was determined by cell counts. Cells were washed with PBS (37° C.) and starved by placing them in IMEM-phenol red free media containing 2% charcoal-dextran fetal bovine-stripped serum (Valley Biomedical, Winchester, Va.) and 1× antibiotic-antimycotic. After 3 days of starvation, cells were treated with or without increasing concentrations of compounds, replacing the media every 2-3 days and counted after 7 days of treatment. In order to ensure that only the added test compounds stimulated growth, experiments were performed only with cell cultures that duplicated less than once during the starvation period. Values are expressed as MCF7 stimulation index (SI) relative to 2ME2 (defined as 1.00). A value less than 1.00 indicates reduced estrogenicity. Estradiol is used as a positive control.
(§4) To determine anti-tumor and anti-angiogenic activities of the analogs, proliferation assays were performed by evaluating detection of DNA synthesis by use of the 5-bromo-2′-deoxyuridine (BrdU) cell proliferation colorimetric ELISA kit from Roche (Indianapolis, Ind.) according to the manufacturer's instructions. For BrdU assays, the cells were seeded at 1,000 cells/well (MDA-MB-231, anti-tumor activity) or 3,000 cells/well (HUVEC, anti-angiogenic activity) in a 96 well plate, allowed to attach overnight and then exposed to the compound for 48 h. IC50 value is the concentration at which cell proliferation is inhibited by 50%.
(§5) Antiproliferative activity of the NCEs were assessed in tumor cell lines (MDA-MB-231 a breast carcinoma, PC3 a prostate carcinoma and U87-MG a glioma) and endothelial cells (HUVEC).

[2] = tested on: Rat hepatocyte suspensions; assay: Hepatocyte incubations, rat; format: in vitro ADME; details: rat hepatocytes, NR = no reaction
Experimental: as §1

MCF7 cells = assay: MCF7 estrogen-dependent proliferation assay (estrogenicity); format: cell-based, human; details: stimulation index, 2ME2 defined as 1.00; less than 1.00 = reduced estrogenicity; 7 days of treatment
From the text: as §2
as §3, with “[…].” for “Values are expressed as MCF7 stimulation index (SI) relative to 2ME2 (defined as 1.00). A value less than 1.00 indicates reduced estrogenicity.”

[3] = tested on: MDA-MB-231 a human breast carcinoma; assay: BrdU proliferation assay, MDA-MB-231 (anti-tumor activity); format: cell-based
From the text: as §2, §3, §4, §5

[4] = tested on: Human umbilical vein endothelial cells (HUVEC); assay: BrdU proliferation assay, HUVEC (anti-angiogenic activity); format: cell-based
From the text: as §2, §3, §4, §5

[5] = tested on: PC3 a human prostate carcinoma; assay: Proliferation assay, PC3; format: cell-based
From the text: as §2, §3, §4, §5

[6] = Rat pharmacokinetics after oral delivery of 10 mg/kg, cyclodextrin formulation; format: in vivo; details: oral 10 mg/kg, female Sprague Dawley rats
Experimental: Pharmokinetics of the NCEs were assessed by LC/MS after oral delivery of 10 mg/kg to female Sprague Dawley rats using a cyclodextrin formulation.

[7] = Example 2, Table VII, read-out: IC50 value (μM) U87-MG
[8] = Example 2, Table VII, read-out: IC50 value (μM) MDA-MB-231
[9] = Example 2, Table VII, read-out: IC50 value (μM) HUVEC
[10] = Example 2, Table VII, read-out: IC50 value (μM) PC3

AUCall [6]	Cmax [6]	Tmax [6]	T½ [6]	IC50 (U87-MG a human glioma; [7])	IC50 [3, 8]	IC50 [5, 10]	Structure (SMILES)	IC50 [4, 9]	also measured
							COc1cc2c(cc1O)CC[C@@H]1[C@@H]2CC[C@]2(C)[C@@H](O)CC[C@@H]12 [Compound 1, 2-Methoxyestradiol, reference compound]		Hepatocyte Human 60/120′ (1 uM): 60′ ([1]; 1 uM, 60 minutes): 0/0; Hepatocyte Human 60/120′ (1 uM): 120′ ([1]; 1 uM, 120 minutes): 0/0; Hepatocyte Human 60/120′ (5 uM): 60′ ([1]; 5 uM, 60 minutes): 20; Hepatocyte Human 60/120′ (5 uM): 120′ ([1]; 5 uM, 120 minutes): 0; IC50 (U87-MG a human glioma; Homo sapiens, U-87 MG, proliferation, read-out: U87-MG (IC50 μM)): 1.48 ± 0.62 µM; Hepatocyte Rat 60/120′ (1 uM): 60′ ([2]; 1 uM, 60 minutes): 0/0; Hepatocyte Rat 60/120′ (1 uM): 120′ ([2]; 1 uM, 120 minutes): 0/0; Hepatocyte Rat 60/120′ (5 uM): 60′ ([2]; 5 uM, 60 minutes, unit assumed): 39%; Hepatocyte Rat 60/120′ (5 uM): 120′ ([2]; 5 uM, 120 minutes, unit assumed): 24%; MCF7 SI Relative to 2ME2 (MCF7 cells): 1.00; IC50 ([3]; Homo sapiens, MDA-MB-231, BrdU DNA synthesis, 48 h exposure, read-out: MDA-MB-231 (IC50 μM)): 0.69 ± 0.14 µM; IC50 ([4]; Homo sapiens, HUVEC, BrdU DNA synthesis, 48 h exposure, read-out: HUVEC (IC50 μM)): 0.68 ± 0.15 µM; IC50 ([5]; Homo sapiens, proliferation, read-out: PC3 (IC50 μM)): 1.08 ± 0.5 µM
4657 ng·h/mL	1379 ng/mL	60 min	97.8 min	1.27 ± 0.44 µM	1.21 ± 0.47 µM	1.91 ± 0.36 µM	COc1cc2c(cc1C(N)=O)CC[C@@H]1[C@@H]2CC[C@@]2(C)[C@H]1CCC21OCCO1 [ENMD-1565, 17-(1,3-dioxolane)-2-methoxyestra-1,3,5(10)-triene-3 carboxamide]	0.91 µM	
1442 ng·h/mL	665 ng/mL	30 min	53.4 min	0.71 ± 0.09 µM	0.89 ± 0.21 µM	1.14 ± 0.45 µM	COc1cc2c(cc1C(N)=O)CC[C@@H]1[C@@H]2CC[C@]2(C)[C@@H](OC)CC[C@@H]12 [ENMD-1756, 2,17β-(bismethoxy)estra-1,3,5(10)-triene-3-carboxamide]	0.62 µM	
